According to patent US20260263617A1, “DARATUMUMAB DRUG CONJUGATES AND PREPARATION THEREOF” (ZYDUS LIFESCIENCES LIMITED, priority 2023, published 2026):
Read-outs that look alike come from different tables or passages of the source.

Key:
[1] = tested on: Daudi (ATCC CCL-213, B Lymphoblast) cells; assay: In-vitro cytotoxicity assay using Daudi cells (alamar blue); type: cell-based
Protocol: Daudi (ATCC CCL-213, B Lymphoblast) cells were seeded on a 96 well black clear bottom plate (Costar 3603). The cell line was chosen as it is known to express the CD38 receptor. The cells were treated with different concentrations of daratumumab-MMAE conjugation and Darzalex, incubated in CO2 incubator for 2 hours. After incubation the excess or unbound Daratumumab-MMAE was removed, fresh media was added and incubated for 4 days in 5% CO2 at 37° C. At the end of incubation, alamar blue dye (invitrogen, DAL-1100) was added to the cells and incubated for 5 hours in CO2 incubator.

[2] = tested on: Daudi Burkitt lymphoma xenograft; assay: Efficacy in Burkitt lymphoma xenograft disease model in SCID mice; type: in vivo; settings: 5 mg/kg, I.V. route, single administration; dosed at mean tumor volume approximately 20-25 mm3; FIG. 4
Protocol: In present study, the therapeutic potential of novel Daratumumab-ADC has been evaluated in comparison to Daratumumab antibody only. Specifically to induce Burkitt lymphoma xenograft, Immunodeficient SCID mice were injected with Daudi cells (1 million cells/animal/200 μL volume, In 1:1 ratio of cell suspension & matrigel) in right flank region of animals. […] Here, in this study, Daratumumab-ADC & Daratumumab were compared head to head at a dose level of 5 mg/kg (I.V. route, Single administration).

Daratumumab: immunoglobulin G1 kappa (IgG1κ) human monoclonal antibody against CD38 antigen [reference compound]
in vitro activity (cytotoxicity, viable cells by alamar blue fluorescence) [1]: does not show activity without effector functions | effect on tumor progression / tumor burden [2]: able to delay the tumor progression in comparison to placebo control group but not able to regress the tumor burden

daratumumab-MMAE conjugate: daratumumab as an antibody, mc-vc-PABC as a linker and MMAE as a toxin or drug or payload; average DAR about 4
in vitro activity (cytotoxicity, viable cells by alamar blue fluorescence) ([1]; Daudi cells expressing CD38, 2 hours treatment, unbound removed, 4 days incubation, no effector cells): shows good in vitro activity without the requirement of effector cell mediated killing | relative in vitro activity compared with Darzalex ([1]; Daudi cells, FIG. 3): better than Darzalex | effect on tumor progression / tumor burden [2]: able to regress the tumor burden
